This note sets out measurements from patent US8207178B2 (priority 2007, dated 2012).

The term EC50 denotes the concentration needed to bring the measured effect to its halfway point.

Where two headings read alike, the source gives them in different places. Bounds are passed on as bounds.

In one assay the test system is wild type HIV-1. As to the kind of experiment: microbe, parasite or virus in culture. The assay is classed as cell-based, human immunodeficiency virus type 1 (HIV-1). Conditions: Human immunodeficiency virus 1, Hela-JC53.
In another assay the test system is HIV-1 K103N-L100I mutant. As to the kind of experiment: microbe, parasite or virus in culture. The assay is classed as cell-based, human immunodeficiency virus type 1 (HIV-1).
Where [1] appears, read: Human immunodeficiency virus 1, HeLa, read-out: EC50 mutant K103N-L100I, mutant K103N-L100I.

Regarding `Cc1cc(-c2cc(F)nc(F)c2)cc(C)c1Oc1nc(Nc2ccc(C#N)cc2)nc2ccn(C)c12` [Example 4, 4-(4-(4-(2,6-Difluoropyridin-4-yl)-2,6-dimethylphenoxy)-5-methyl-5H-pyrrolo[3,2-d]pyrimidin-2-ylamino) benzonitrile], the EC50 in the assay with wild type HIV-1 was 1 to 10 nM; with HIV-1 K103N-L100I mutant (setting [1]) it was greater than 10 nM. The corresponding values for `COc1cnccc1-c1cc(C)c(Oc2nc(Nc3ccc(C#N)cc3)nc3ccn(C)c23)c(C)c1` [Example 9, 4-(4-(4-(3-Methoxypyridin-4-yl)-2,6-dimethylphenoxy)-5-methyl-5H-pyrrolo[3,2-d]pyrimidin-2-ylamino) benzonitrile] are 1 to 10 nM and 1 to 10 nM. As to `COc1cc(-c2cc(C)c(Oc3nc(Nc4ccc(C#N)cc4)nc4ccn(C)c34)c(C)c2)ccn1` [Example 10, 4-(4-(4-(2-Methoxypyridin-4-yl)-2,6-dimethylphenoxy)-5-methyl-5H-pyrrolo[3,2-d]pyrimidin-2-ylamino) benzonitrile], the EC50 in the assay on wild type HIV-1 and with HIV-1 K103N-L100I mutant (setting [1]) was greater than 10 nM throughout.

Turning to `Cc1cc(-c2ccncc2Cl)cc(C)c1Oc1nc(Nc2ccc(C#N)cc2)nc2ccn(C)c12` [Example 11, 4-(4-(4-(3-Chloropyridin-4-yl)-2,6-dimethylphenoxy)-5-methyl-5H-pyrrolo[3,2-d]pyrimidin-2-ylamino) benzonitrile], the EC50 in the assay with wild type HIV-1 and in the assay with HIV-1 K103N-L100I mutant (setting [1]) was less than 1 nM throughout. On to `Cc1cc(-c2cccnc2)cc(C)c1Oc1nc(Nc2ccc(C#N)cc2)nc2ccn(C)c12` [Example 12, 4-(4-(2,6-Dimethyl-4-(pyridin-3-yl)phenoxy)-5-methyl-5H-pyrrolo[3,2-d]pyrimidin-2-ylamino)benzonitrile], for which the EC50 was 1 to 10 nM with wild type HIV-1 and greater than 10 nM in the assay on HIV-1 K103N-L100I mutant (setting [1]). Regarding `Cc1cc(-c2ccoc2)cc(C)c1Oc1nc(Nc2ccc(C#N)cc2)nc2ccn(C)c12` [Example 13, 4-(4-(4-(Furan-3-yl)-2,6-dimethylphenoxy)-5-methyl-5H-pyrrolo[3,2-d]pyrimidin-2-ylamino)benzonitrile], the concentration for a half-maximal effect (EC50) in the assay with wild type HIV-1 is 1 to 10 nM; with HIV-1 K103N-L100I mutant (setting [1]), greater than 10 nM. `Cc1cc(-c2cncnc2)cc(C)c1Oc1nc(Nc2ccc(C#N)cc2)nc2ccn(C)c12` [Example 14, 4-(4-(2,6-dimethyl-4-(pyrimidin-5-yl)phenoxy)-5-methyl-5H-pyrrolo[3,2-d]pyrimidin-2-ylamino) benzonitrile]: the EC50 with wild type HIV-1 was less than 1 nM; in the assay on HIV-1 K103N-L100I mutant (setting [1]), 1 to 10 nM.

In the case of `Cc1cc(-c2ccncc2)cc(C)c1Oc1nc(Nc2ccc(C#N)cc2)nc2c(Cl)cn(C)c12` [Example 18, 4-(7-Chloro-4-(2,6-dimethyl-4-(pyridin-4-yl)phenoxy)-5-methyl-5H-pyrrolo[3,2-d]pyrimidin-2-ylamino)benzonitrile], the EC50 in the assay with wild type HIV-1 and in the assay on HIV-1 K103N-L100I mutant (setting [1]) was 1 to 10 nM throughout. With `Cc1cc(-c2ccncc2)cc(C)c1Nc1nc(Nc2ccc(C#N)cc2)nc2ccn(C)c12` [Example 19, 4-(4-(2,6-Dimethyl-4-(pyridin-4-yl)phenylamino)-5-methyl-5H-pyrrolo[3,2-d]pyrimidin-2-ylamino)benzonitrile], the figures for the EC50 in the assay with wild type HIV-1 and in the assay on HIV-1 K103N-L100I mutant (setting [1]) were less than 1 nM and 1 to 10 nM, respectively. For `COc1ncc(-c2cc(C)c(Oc3nc(Nc4ccc(C#N)cc4)nc4ccn(C)c34)c(C)c2)cn1` [Example 20, 4-(4-(4-(2-Methoxypyrimidin-5-yl)-2,6-dimethylphenoxy)-5-methyl-5H-pyrrolo [3,2-d]pyrimidin-2-ylamino)benzonitrile] the same measures were less than 1 nM and 1 to 10 nM. For `Cc1cc(-c2c(C)nn(C)c2C)cc(C)c1Oc1nc(Nc2ccc(C#N)cc2)nc2ccn(C)c12` [Example 21] the same measures were 1 to 10 nM and greater than 10 nM. On to `Cc1cc(-c2ccc(N(C)C)cc2)cc(C)c1Oc1nc(Nc2ccc(C#N)cc2)nc2ccn(C)c12` [Example 22, 4-(4-(4′-(Dimethylamino)-3,5-dimethylphenyl-4-yloxy)-5-methyl-5H-pyrrolo[3,2-d]pyrimidin-2-ylamino)benzonitrile], for which the results for the EC50 with wild type HIV-1 and in the assay with HIV-1 K103N-L100I mutant (setting [1]) were 1 to 10 nM and greater than 10 nM, respectively.

`Cc1cc(-c2ccncc2C#N)cc(C)c1Oc1nc(Nc2ccc(C#N)cc2)nc2ccn(C)c12` [Example 23, 4-(4-(2-(4-Cyanophenylamino)-5-methyl-5H-pyrrolo[3,2-d]pyrimidin-4-yloxy)-3,5-dimethyl-phenyl)nicotinonitrile]: the EC50 with wild type HIV-1 is less than 1 nM; in the assay with HIV-1 K103N-L100I mutant (read-out: EC50 mutant K103N-L100I, mutant K103N-L100I), greater than 10 nM. In the case of `Cc1cc(-c2cnc(N(C)C)nc2)cc(C)c1Oc1nc(Nc2ccc(C#N)cc2)nc2ccn(C)c12` [Example 28], the half-maximal effective concentration (EC50) in the assay on HIV-1 K103N-L100I mutant (setting [1]) was greater than 10 nM. The same measure, in the same setting: under `Cc1cc(-c2cnc(N)nc2)cc(C)c1Oc1nc(Nc2ccc(C#N)cc2)nc2ccn(C)c12` [Example 70, 4-(4-(4-(2-aminopyrimidin-5-yl)-2,6-dimethylbiphenoxy)-5-methyl-5H-pyrrolo[3,2-d]pyrimidin-2-ylamino) benzonitrile] stands 1 to 10 nM; under `Cc1cc(-c2cccc(S(N)(=O)=O)c2)cc(C)c1Oc1nc(Nc2ccc(C#N)cc2)nc2ccn(C)c12` [Example 71, 4′-(2-(4-cyanophenylamino)-5-methyl-5H-pyrrolo[3,2-d]pyrimidin-4-yloxy)-3′,5′-dimethylbiphenyl-3-sulfonamide], greater than 10 nM. In the assay with wild type HIV-1, `COc1ccc(-c2cc(C)c(Oc3nc(Nc4ccc(C#N)cc4)nc4ccn(C)c34)c(C)c2)cn1` [Example 82, 4-(4-(4-(6-methoxypyridin-3-yl)-2,6-dimethylphenoxy)-5-methyl-5H-pyrrolo[3,2-d]pyrimidin-2-ylamino) benzonitrile] came in with an EC50 greater than 10 nM.

Take `COc1cccc(C#N)c1-c1cc(C)c(Oc2nc(Nc3ccc(C#N)cc3)nc3ccn(C)c23)c(C)c1` [Example 83, 4′-(2-(4-cyanophenylamino)-5-methyl-5H-pyrrolo[3,2-d]pyrimidin-4-yloxy)-6-methoxy-3′,5′-dimethylbiphenyl-2-carbonitrile]: the EC50 with wild type HIV-1 is greater than 10 nM.

In the assay on wild type HIV-1, `Cc1cc(-c2ccc(C(=O)N3CCCC3)cc2)cc(C)c1Oc1nc(Nc2ccc(C#N)cc2)nc2ccn(C)c12` [Example 93, 4-(4-(3,5-dimethyl-4′-(pyrrolidine-1-carbonyl)biphenyl-4-yloxy)-5-methyl-5H-pyrrolo[3,2-d]pyrimidin-2-ylamino) benzonitrile] had an EC50 greater than 10 nM. `Cc1cc(-c2ccc(C(=O)O)cn2)cc(C)c1Oc1nc(Nc2ccc(C#N)cc2)nc2[nH]cnc12` [Example 121, 6-(4-(2-(4-cyanophenylamino)-9H-purin-6-yloxy)-3,5-dimethylphenyl)nicotinic acid]: in the assay on wild type HIV-1, the EC50 was greater than 10 nM.

In the assay with wild type HIV-1, `Cc1cc(-c2ccc(C(=O)N3CCC(C(N)=O)C3)cn2)cc(C)c1Oc1nc(Nc2ccc(C#N)cc2)nc2[nH]cnc12` (centres unmarked) [Example 122, 1-(6-(4-(2-(4-cyanophenylamino)-9H-purin-6-yloxy)-3,5-dimethylphenyl)nicotinoyl)pyrrolidine-3-carboxamide] gave an EC50 greater than 10 nM.

`Cc1cc(-c2ccc(C(N)=O)cn2)cc(C)c1Oc1nc(Nc2ccc(C#N)cc2)nc2[nH]cnc12` [Example 126, 6-(4-(2-(4-cyanophenylamino)-9H-purin-6-yloxy)-3,5-dimethylphenyl)nicotinamide] gave an EC50 in the assay with wild type HIV-1 of 1 to 10 nM.
